Measurements reported in article PMC9420947, “^131I-Caerin 1.1 and ^131I-Caerin 1.9 for the treatment of non-small-cell lung cancer” (Frontiers in Oncology, 2022).
Read-outs that look alike come from different tables or passages of the source. No end group written: not given here.

Key:
[1] = test system: A549 cells; test: Cell uptake; type: cell-based, human; settings: 24 hours, serum-free medium, 1.85 ×10^5Bq per well, γ count, triplicate, mean ± SD
Procedure: A549 cells were seeded in four 24-well plates (Coring, USA) at 5×10^4 cells (500 µl) per well. The experiment was done in triplicate and included a positive-control well. After the cells were cultured in an incubator for 24 hours, the supernatant was discarded, 0.5 ml of serum-free medium was added to each well, and ^131I-Caerin 1.1 or ^131I-Caerin 1.9 and Na-^131I solution (1.85 ×10^5Bq or 2 µl per well) were added. After the cells were incubated for 2, 4, 6, or 24 hours, the cells were removed from the incubator. For the positive control, the supernatant was collected in a tube. For the experimental groups, the supernatant was discarded, and the cells were washed twice with PBS. Next, 200 µl of trypsin (GIBCO, USA) was added to each well. After digestion, the cells were washed three times with PBS and then collected in a tube to measure their radioactivity count. GraphPad Prism v9.3.0 was used to calculate the drug binding rate.

[2] = test system: A549 cells; test: CCK-8 cell proliferation and cytotoxicity; type: cell-based, human; settings: CCK-8, 20,000 KBq/ml, 24 hours, triplicate, mean ± SD
Procedure: A549 cells were seeded in two 96-well plates at 5×10^3 cells (100 µl) per well and cultured for 24 hours at 5% CO2 and 37°C. The ^131I-Caerin 1.1, ^131I-Caerin 1.9, and Na-^131I solutions were added to a final concentration of 2500, 5000, 10,000, or 20,000 KBq/ml. In the corresponding plates for Caerin 1.1 and Caerin 1.9, the drug concentration was 3.29, 6.95, 14.29, or 30.72 µg/ml. The experiment was done in triplicate and included three control (drug-free) groups. The cells were cultured for another 24 hours. Next, 10 µl of CCK-8 solution (DOJINDO, Japan) was added to each well, and then the cells were cultured in the dark for 4-6 hours. The absorbance at 450 nm was measured in an enzyme-linked immunosorbent assay plate reader, and GraphPad Prism v9.3.0 was used to calculate the cell survival rate.

[3] = test system: A549 cells; test: Cell elution (retention); type: cell-based, human; settings: 24 h incubation, wash, then 24 hours in serum-free medium, 1.85 ×10^5Bq per well, γ count, triplicate, mean ± SD
Procedure: A549 cells were seeded in four 24-well plates at 5×10^4 cells (500 µl) per well and cultured for 24 hours. The experiment was done in triplicate and included a positive-control well. The supernatant was discarded, 0.5 ml of serum-free medium was added to each well, and then ^131I-Caerin 1.1, ^131I-Caerin 1.9, or free ^131I was added (1.85 ×10^5Bq or 2 µl per well). After incubation for 24 hours, the supernatant was discarded, the cells were washed twice with PBS, 0.5 ml of serum-free medium was added to each well, and the cells were incubated for another 2, 4, 6, or 24 hours. For the positive control, the supernatant was collected in a tube. For the experimental groups, the supernatant was discarded, the cells were washed twice with PBS, and 200 µl of trypsin was added to each well. After digestion, the cells were washed three times with PBS and then collected in a tube to measure the radioactivity count. GraphPad Prism v9.3.0 was used to calculate the drug retention rate.

[4] = test system: A549 xenograft NSCLC tumors; test: A549 subcutaneous xenograft in nude mice, tumor growth; type: in vivo, BALB/c female nude mice; settings: intratumoral injection every other day, four injections, 8 μg peptide and/or 7.4 ×10^6 Bq, 3 days after the last injection, four mice per group
Excerpt: (§1) Specific pathogen–free (SPF) 4-6-week-old (adult) BALB/c female nude mice were purchased from Guangdong Medical Laboratory Animal Center. The animals were housed at the Animal Resource Center (First Affiliated Hospital of Guangdong Pharmaceutical University) under SPF conditions. No animal was sick or died during the study. Nude mice were sacrificed by cervical dislocation in accordance with the Animal Management Measures of the Ministry of Health of the People’s Republic of China (Document no.55, 2001). All experiments were approved and were done in accordance with the guidelines of the Animal Experiment Ethics Committee of the First Affiliated Hospital of Guangdong Pharmaceutical University (Ethics approval number: FAHGPU20160316).
(§2) A total of 100 µl of A549 cells (1×10^6 cells) suspended in PBS were inoculated subcutaneously in the axillary area of nude mice to establish a subcutaneous xenograft model. Once the tumor was 3 to 4 mm long, the nude mice were used in the following experiment. A digital caliper (Mitutoyo, Japan, CD-15APX) was used to monitor tumor size every other day. Tumor volume was calculated according to the formula: volume = width^2 × length/2.
(§3) To reduce the thyroid uptake of ^131I, all nude mice were fed 0.1% potassium iodide (Shanghai Macklin Biochemical Co., Ltd., China) for 3 days to block the thyroid before the experiment. […]

[5] = Body weight of A549 tumor-bearing nude mice; type: in vivo, BALB/c female nude mice; settings: intratumoral injection every other day, four injections, 8 μg peptide and/or 7.4 ×10^6 Bq, 3 days after the last injection, four mice per group
Excerpt: as §1, §2, §3

[6] = test system: A549 cells; type: cell-based, human; settings: MTT; for survival rate of A549 cells: overnight, triplicate, mean ± SD
Procedure: The NSCLC cell line A549 was from the Stem Cell Bank of the Chinese Academy of Sciences. The medium of A549 cells contained 89% RPMI medium 1640 (GIBCO, USA), 10% heat-inactivated fetal bovine serum (Coring, USA), and 1% penicillin-streptomycin solution (GIBCO, USA). The cells were incubated in an incubator (Thermo, USA) at 37°C in 5% CO2.
A total of 500 mg of 3-(4,5-dimethylthiazol-2-yl)-2,5-diphenyl tetrazolium bromide (MTT) powder (Sigma-Aldrich, USA) was dissolved in 100 ml of PBS to a final concentration of 5 mg/ml (0.5% MTT). The solution was stored in the dark at -20°C. A549 cells in the exponential growth phase were seeded in 96-well plates (Coring, USA) at 5×10^3 cells (100 µl) per well and then incubated at 37°C in 5% CO2 for 24 hours. Different concentrations of P3, Caerin 1.1, and Caerin 1.9 were added to the 96-well plates to reach final concentrations of 1, 5, 10, 15, 20, 25, 30, and 40 μg/ml. The experiment was done in triplicate and included control wells. The cells were cultured overnight. Once the drug’s effect was visible under the microscope, 10 µl of MTT solution was added to each well, and the cells were cultured for another 4 hours. Next, the supernatant was carefully aspirated, 150 µl of dimethyl sulfoxide solution (Sigma-Aldrich, USA) was added to each well, and the 96-well plates were placed on a shaker at low speed for 10 minutes. The absorbance at 570 nm was measured in an enzyme-linked immunosorbent assay plate reader (Thermo Scientific, USA). GraphPad Prism v9.3.0 was used calculate the half-maximal inhibitory concentration (IC50) of each drug and the survival rate (%).

[131I-].[Na+] [Na-^131I, reference compound]
uptake rate by A549 cells [1]: 0.67 ± 0.08%
survival rate of A549 cells [2]: 71.56% ± 9.83%
binding rate after elution [3]: 4.97% ± 0.59%
tumor volume at the time of sacrifice [4]: 186.30 ± 19.69 mm^3
tumor weight after sacrifice [4]: 0.147 ± 0.009 g
body weight at the time of sacrifice [5]: 17.99 ± 0.50 g

GLFGVLGSIAKHVLPHVVPVIAEKL-NH2 [Caerin 1.9]
survival rate of A549 cells ([6]; 10 μg/ml): 74.20% ± 3.57%
survival rate of A549 cells ([6]; 15 μg/ml): 72.65% ± 0.76%
survival rate of A549 cells ([6]; 20 μg/ml): 36.43% ± 4.85%
survival rate of A549 cells ([6]; 25 μg/ml): 20.43% ± 1.92%
IC50 on A549 cells ([6]; 1-40 μg/ml, GraphPad Prism): 17.46 µg/mL
